From ChEMBL document CHEMBL5625247, “Tetrahydro-β-carboline derivatives as potent histone deacetylase 6 inhibitors with broad-spectrum antiproliferative activity” (Eur J Med Chem, 2023)

Key:
Histone deacetylase 1 = Histone deacetylase 1 (Homo sapiens, UniProt Q13547); experiment: Inhibition of HDAC1 (unknown origin) expressed in baculovirus infected in Sf9 cells using RHKKAc as substrate preincubated for 5 to 10 mins followed by substrate addition measured after 2 hrs by fluorescence based assay
Histone deacetylase 1, sequence (Q13547 whole entry): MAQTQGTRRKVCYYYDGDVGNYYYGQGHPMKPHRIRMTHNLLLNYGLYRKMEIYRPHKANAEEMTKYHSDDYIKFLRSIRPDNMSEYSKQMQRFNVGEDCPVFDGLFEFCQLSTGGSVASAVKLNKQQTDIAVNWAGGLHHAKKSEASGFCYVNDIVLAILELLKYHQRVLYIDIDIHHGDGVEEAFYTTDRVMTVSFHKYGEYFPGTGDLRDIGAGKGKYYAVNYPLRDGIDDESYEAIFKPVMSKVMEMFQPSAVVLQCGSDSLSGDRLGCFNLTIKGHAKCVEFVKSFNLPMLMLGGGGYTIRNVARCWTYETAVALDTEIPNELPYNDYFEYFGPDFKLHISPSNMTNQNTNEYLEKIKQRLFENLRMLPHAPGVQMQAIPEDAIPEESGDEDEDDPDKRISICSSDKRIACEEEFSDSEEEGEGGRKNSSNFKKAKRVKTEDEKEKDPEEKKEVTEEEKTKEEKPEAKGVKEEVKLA

RPMI-8226 = experiment: cells; type: functional, cell-based; details: Homo sapiens; for GI50: RPMI-8226, time 72 hrs
K562 = experiment: Antiproliferative activity against human K562 cells assessed as cell growth inhibition incubated for 72 hrs by alamar blue dye based assay; type: functional
MOLT-4 = experiment: Antiproliferative activity against human MOLT-4 cells assessed as cell growth inhibition incubated for 72 hrs by alamar blue dye based assay; type: functional
SR = experiment: Antiproliferative activity against human SR cells assessed as cell growth inhibition incubated for 72 hrs by alamar blue dye based assay; type: functional
A549 = experiment: Antiproliferative activity against human A549 cells assessed as cell growth inhibition incubated for 72 hrs by alamar blue dye based assay; type: functional
EKVX = experiment: Antiproliferative activity against human EKVX cells assessed as cell growth inhibition incubated for 72 hrs by alamar blue dye based assay; type: functional
HOP-62 = experiment: Antiproliferative activity against human HOP-62 cells assessed as cell growth inhibition incubated for 72 hrs by alamar blue dye based assay; type: functional
NCI-H322M = experiment: Antiproliferative activity against human NCI-H322M cells assessed as cell growth inhibition incubated for 72 hrs by alamar blue dye based assay; type: functional
NCI-H460 = experiment: Antiproliferative activity against human NCI-H460 cells assessed as cell growth inhibition incubated for 72 hrs by alamar blue dye based assay; type: functional
NCI-H522 = experiment: Antiproliferative activity against human NCI-H522 cells assessed as cell growth inhibition incubated for 72 hrs by alamar blue dye based assay; type: functional
HCC 2998 = experiment: Antiproliferative activity against human HCC 2998 cells assessed as cell growth inhibition incubated for 72 hrs by alamar blue dye based assay; type: functional
HCT-116 = experiment: Antiproliferative activity against human HCT-116 cells assessed as cell growth inhibition incubated for 72 hrs by alamar blue dye based assay; type: functional
HT-29 = experiment: Antiproliferative activity against human HT-29 cells assessed as cell growth inhibition incubated for 72 hrs by alamar blue dye based assay; type: functional
KM12 = experiment: Antiproliferative activity against human KM12 cells assessed as cell growth inhibition incubated for 72 hrs by alamar blue dye based assay; type: functional
SF-268 = experiment: Antiproliferative activity against human SF-268 cells assessed as cell growth inhibition incubated for 72 hrs by alamar blue dye based assay; type: functional
SF-295 = experiment: Antiproliferative activity against human SF-295 cells assessed as cell growth inhibition incubated for 72 hrs by alamar blue dye based assay; type: functional
SF-539 = experiment: Antiproliferative activity against human SF-539 cells assessed as cell growth inhibition incubated for 72 hrs by alamar blue dye based assay; type: functional
SNB-19 = experiment: Antiproliferative activity against human SNB-19 cells assessed as cell growth inhibition incubated for 72 hrs by alamar blue dye based assay; type: functional
SNB-75 = experiment: Antiproliferative activity against human SNB-75 cells assessed as cell growth inhibition incubated for 72 hrs by alamar blue dye based assay; type: functional
U-251 = experiment: Antiproliferative activity against human U-251 cells assessed as cell growth inhibition incubated for 72 hrs by alamar blue dye based assay; type: functional
Malme-3M = experiment: Antiproliferative activity against human Malme-3M cells assessed as cell growth inhibition incubated for 72 hrs by alamar blue dye based assay; type: functional
M14 = experiment: Antiproliferative activity against human M14 cells assessed as cell growth inhibition incubated for 72 hrs by alamar blue dye based assay; type: functional
MDA-MB-435 = experiment: Antiproliferative activity against human MDA-MB-435 cells assessed as cell growth inhibition incubated for 72 hrs by alamar blue dye based assay; type: functional
SK-MEL-2 = experiment: Antiproliferative activity against human SK-MEL-2 cells assessed as cell growth inhibition incubated for 72 hrs by alamar blue dye based assay; type: functional
SK-MEL-28 = experiment: Antiproliferative activity against human SK-MEL-28 cells assessed as cell growth inhibition incubated for 72 hrs by alamar blue dye based assay; type: functional
SK-MEL-5 = experiment: Antiproliferative activity against human SK-MEL-5 cells assessed as cell growth inhibition incubated for 72 hrs by alamar blue dye based assay; type: functional
UACC-257 = experiment: Antiproliferative activity against human UACC-257 cells assessed as cell growth inhibition incubated for 72 hrs by alamar blue dye based assay; type: functional
OVCAR-3 = experiment: Antiproliferative activity against human OVCAR-3 cells assessed as cell growth inhibition incubated for 72 hrs by alamar blue dye based assay; type: functional
OVCAR-4 = experiment: Antiproliferative activity against human OVCAR-4 cells assessed as cell growth inhibition incubated for 72 hrs by alamar blue dye based assay; type: functional
OVCAR-5 = experiment: Antiproliferative activity against human OVCAR-5 cells assessed as cell growth inhibition incubated for 72 hrs by alamar blue dye based assay; type: functional
OVCAR-8 = experiment: Antiproliferative activity against human OVCAR-8 cells assessed as cell growth inhibition incubated for 72 hrs by alamar blue dye based assay; type: functional
NCI/ADR-RES = experiment: Antiproliferative activity against human NCI-ADR-RES cells assessed as cell growth inhibition incubated for 72 hrs by alamar blue dye based assay; type: functional
SK-OV-3 = experiment: Antiproliferative activity against human SK-OV-3 cells assessed as cell growth inhibition incubated for 72 hrs by alamar blue dye based assay; type: functional
786-0 = experiment: Antiproliferative activity against human 786-0 cells assessed as cell growth inhibition incubated for 72 hrs by alamar blue dye based assay; type: functional
A498 = experiment: Antiproliferative activity against human A498 cells assessed as cell growth inhibition incubated for 72 hrs by alamar blue dye based assay; type: functional
ACHN = experiment: Antiproliferative activity against human ACHN cells assessed as cell growth inhibition incubated for 72 hrs by alamar blue dye based assay; type: functional
CAKI-1 = experiment: Antiproliferative activity against human CAKI-1 cells assessed as cell growth inhibition incubated for 72 hrs by alamar blue dye based assay; type: functional
RXF 393 = experiment: Antiproliferative activity against human RXF 393 cells assessed as cell growth inhibition incubated for 72 hrs by alamar blue dye based assay; type: functional
SN12C = experiment: Antiproliferative activity against human SN12C cells assessed as cell growth inhibition incubated for 72 hrs by alamar blue dye based assay; type: functional
TK-10 = experiment: Antiproliferative activity against human TK-10 cells assessed as cell growth inhibition incubated for 72 hrs by alamar blue dye based assay; type: functional
PC-3 = experiment: Antiproliferative activity against human PC-3 cells assessed as cell growth inhibition incubated for 72 hrs by alamar blue dye based assay; type: functional
MDA-MB-231 = experiment: Antiproliferative activity against human MDA-MB-231 cells assessed as cell growth inhibition incubated for 72 hrs by alamar blue dye based assay; type: functional
Hs-578T = experiment: Antiproliferative activity against human Hs-578T cells assessed as cell growth inhibition incubated for 72 hrs by alamar blue dye based assay; type: functional
T47D = experiment: Antiproliferative activity against human T47D cells assessed as cell growth inhibition incubated for 72 hrs by alamar blue dye based assay; type: functional
MDA-MB-468 = experiment: Antiproliferative activity against human MDA-MB-468 cells assessed as cell growth inhibition incubated for 72 hrs by alamar blue dye based assay; type: functional

With `O=C(NO)c1ccc(CNC(=O)[C@H]2Cc3c([nH]c4ccccc34)[C@H](c3ccc(Cl)cc3)N2)cc1` the IC50 (Histone deacetylase 1) was 0.0616 µM, the IC50 (RPMI-8226; RPMI-8226, 72 h) was 0.62 µM and the GI50 (RPMI-8226) was 0.564 µM. The GI50 (K562) was 0.72 µM, the GI50 (MOLT-4) was 0.563 µM and the GI50 (SR) was 1.15 µM. It also gave a GI50 (A549) of 3.97 µM, a GI50 (EKVX) of 2.65 µM and a GI50 (HOP-62) of 1.27 µM. The GI50 (NCI-H322M) was 1.62 µM, the GI50 (NCI-H460) was 1.02 µM and the GI50 (NCI-H522) was 0.584 µM. The GI50 (HCC 2998) was 0.605 µM, the GI50 (HCT-116) was 0.609 µM and the GI50 (HT-29) was 0.838 µM. The GI50 (KM12) was 2.36 µM, the GI50 (SF-268) was 2.92 µM and the GI50 (SF-295) was 1.81 µM. It also gave a GI50 (SF-539) of 1.14 µM, a GI50 (SNB-19) of 2.26 µM and a GI50 (SNB-75) of 2.26 µM. It also gave a GI50 (U-251) of 1.21 µM, a GI50 (Malme-3M) of 0.41 µM and a GI50 (M14) of 2.2 µM. For the same molecule, the GI50 (MDA-MB-435) was 0.959 µM, the GI50 (SK-MEL-2) was 2.77 µM and the GI50 (SK-MEL-28) was 0.878 µM. It also gave a GI50 (SK-MEL-5) of 0.721 µM, a GI50 (UACC-257) of 1.23 µM and a GI50 (OVCAR-3) of 1.23 µM. It also gave a GI50 (OVCAR-4) of 3.73 µM, a GI50 (OVCAR-5) of 0.456 µM and a GI50 (OVCAR-8) of 0.942 µM. The GI50 (NCI/ADR-RES) was 3.35 µM, the GI50 (SK-OV-3) was 2.01 µM and the GI50 (786-0) was 3.71 µM. It also gave a GI50 (A498) of 2.06 µM, a GI50 (ACHN) of 3.05 µM and a GI50 (CAKI-1) of 2.33 µM. The GI50 (RXF 393) was 0.455 µM, the GI50 (SN12C) was 2.41 µM and the GI50 (TK-10) was 1.51 µM. It also gave a GI50 (PC-3) of 1.76 µM, a GI50 (MDA-MB-231) of 0.887 µM and a GI50 (Hs-578T) of 1.01 µM. For the same molecule, the GI50 (T47D) was 0.6 µM and the GI50 (MDA-MB-468) was 0.38 µM.

`COc1ccc(CN2[C@@H](C(=O)NCc3ccc(C(=O)NO)cc3)Cc3c([nH]c4ccccc34)[C@@H]2C2CC2)cc1` gave an IC50 (Histone deacetylase 1) of 0.171 µM, a GI50 (RPMI-8226) of 2.92 µM and a GI50 (K562) of 1.67 µM. The GI50 (MOLT-4) was 1.85 µM, the GI50 (SR) was greater than 19.8 µM and the GI50 (A549) was 3.54 µM. It also gave a GI50 (EKVX) of 3.2 µM, a GI50 (HOP-62) of 3.48 µM and a GI50 (NCI-H322M) of 4.25 µM. It also gave a GI50 (NCI-H460) of 3.14 µM, a GI50 (NCI-H522) of 0.965 µM and a GI50 (HCC 2998) of 2.6 µM. It also gave a GI50 (HCT-116) of 2.08 µM, a GI50 (HT-29) of 4.84 µM and a GI50 (KM12) of 3.51 µM. For the same molecule, the GI50 (SF-268) was 4.4 µM, the GI50 (SF-295) was 2.92 µM and the GI50 (SF-539) was 2.48 µM. It also gave a GI50 (SNB-19) of 2.89 µM, a GI50 (SNB-75) of 1.13 µM and a GI50 (U-251) of 2.66 µM. The GI50 (Malme-3M) was 0.847 µM, the GI50 (M14) was 4.07 µM and the GI50 (MDA-MB-435) was 0.638 µM. The GI50 (SK-MEL-2) was 4.11 µM, the GI50 (SK-MEL-28) was 1.98 µM and the GI50 (SK-MEL-5) was 2.6 µM. The GI50 (UACC-257) was 2.39 µM, the GI50 (OVCAR-3) was 3.41 µM and the GI50 (OVCAR-4) was 4.74 µM. The GI50 (OVCAR-5) was 1.87 µM, the GI50 (OVCAR-8) was 2.56 µM and the GI50 (NCI/ADR-RES) was 4.05 µM. It also gave a GI50 (SK-OV-3) of 2.87 µM, a GI50 (786-0) of 3.98 µM and a GI50 (A498) of 2.77 µM. The GI50 (ACHN) was 3.52 µM, the GI50 (CAKI-1) was 2.4 µM and the GI50 (RXF 393) was 0.797 µM. For the same molecule, the GI50 (SN12C) was 3.86 µM, the GI50 (TK-10) was 3.17 µM and the GI50 (PC-3) was 3.12 µM. It also gave a GI50 (MDA-MB-231) of 2.43 µM, a GI50 (Hs-578T) of 1.85 µM and a GI50 (T47D) of 3.82 µM. For the same molecule, the GI50 (MDA-MB-468) was 1 µM.
